#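 Growth conditions: 96-well plates. Treatment: test compound, 48 hours, 5 concentrations. Analysis: linear interpolation between bracketing concentrations; unreached endpoints set to highest concentration. The concentration for full growth arrest is given as TGI.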
# Legend:
# Assay in all cases: growth of human tumour cells (NCI), 48 h
# 786-0 renal = system: 786-0 renal
# A549 NSCLC = system: A549 NSCLC
# HCT-116 colon = system: HCT-116 colon
# HL-60(TB) leukemia = system: HL-60(TB) leukemia
# MALME-3M melanoma = system: MALME-3M melanoma
# NCI-H522 lung = system: NCI-H522 lung
# PC-3 prostate = system: PC-3 prostate
# SW-620 colon = system: SW-620 colon
# TK-10 renal = system: TK-10 renal
# U251 CNS = system: U251 CNS
SMILES,TGI (786-0 renal),TGI (A549 NSCLC),TGI (HCT-116 colon),TGI (HL-60(TB) leukemia),TGI (MALME-3M melanoma),TGI (NCI-H522 lung),TGI (PC-3 prostate),TGI (SW-620 colon),TGI (TK-10 renal),TGI (U251 CNS)
Cc1cccc2c1CC(Cc1ccccc1C(=O)O)C2=O (stereo not given),> 100 µM,> 100 µM,> 100 µM,> 100 µM,> 100 µM,> 100 µM,> 100 µM,> 100 µM,> 100 µM,> 100 µM
N#Cc1c(-c2ccc([N+](=O)[O-])cc2)c(C#N)c(=O)n(NS(=O)(=O)c2ccccc2)c1O,> 100 µM,> 100 µM,> 100 µM,> 100 µM,> 100 µM,> 100 µM,> 100 µM,> 100 µM,> 100 µM,> 100 µM
COc1ccc(C2C=C(c3ccc(C)cc3)N(c3ccc(OC)cc3[N+](=O)[O-])C3C(=O)OC(=O)C23)c(OC)c1 (stereo not given),> 100 µM,> 100 µM,> 100 µM,> 100 µM,38.5 µM,53.7 µM,> 100 µM,80.9 µM,> 100 µM,> 100 µM
CC(=O)Oc1ccn2nc(C)c(Br)c2c1,> 100 µM,> 100 µM,> 100 µM,> 86.5 µM,> 100 µM,97.1 µM,> 86.5 µM,> 100 µM,> 100 µM,> 100 µM
Cc1cc(-c2ccccc2)nc2oc(=O)n(C)c12,> 100 µM,> 100 µM,> 100 µM,> 100 µM,> 100 µM,> 100 µM,> 100 µM,> 100 µM,> 100 µM,> 100 µM
CC1=NN2C(=N)/C(=C/c3ccc(F)cc3)C(=O)N=C2S1,> 100 µM,> 100 µM,> 100 µM,> 100 µM,> 100 µM,> 100 µM,> 100 µM,> 100 µM,> 100 µM,> 100 µM
COc1ccc(C(=O)/C=C/SC(=NC#N)SC)cc1,38.8 µM,> 100 µM,28.1 µM,> 100 µM,50.3 µM,37.1 µM,> 100 µM,48.3 µM,42.2 µM,37.9 µM
COc1ccc([C@]23CCC4(OCC(C)(C)CO4)[C@H]4CON(O[C@H](O[C@@H]5CCCCC5C(C)(C)c5ccccc5)C2)[C@@H]43)cc1OC (stereo not given in full),> 100 µM,> 100 µM,> 100 µM,44.4 µM,> 100 µM,> 100 µM,> 100 µM,> 100 µM,> 100 µM,> 100 µM
CO[P@@]1(=O)O[C@@H](c2ccccc2)[C@H](O)[C@]1(O)c1ccccc1,> 100 µM,> 100 µM,> 100 µM,> 100 µM,> 100 µM,> 100 µM,> 100 µM,> 100 µM,> 100 µM,> 100 µM
C[C@H]1[C@H](C)CC[C@]2(C(=O)OC3OC(CO)C(O)C(O)C3O)CC[C@]3(C)C(=CC[C@@H]4[C@@]5(C)C[C@@H](O)[C@@H]6OC(=O)c7cc(O)c(O)c(O)c7-c7c(cc(O)c(O)c7O)C(=O)OC[C@@]6(CO)[C@@H]5CC[C@]43C)[C@H]12 (stereo not given in full),> 53.7 µM,> 100 µM,> 100 µM,> 100 µM,> 100 µM,> 100 µM,> 100 µM,> 67 µM,> 100 µM,> 100 µM

# Reference: PubChem BioAssay (NCI)
